How the values were obtained:
rats = assay: Clinical symptoms of flushing over 28 days; format: in vivo
Text: (§1) Additionally, clinical symptoms of “flushing” were not observed over 28 days in rats or dogs.

dogs = assay: Clinical symptoms of flushing over 28 days; format: in vivo
Text: as §1

high fat-fed hamsters = assay: Liver function tests (AST, ALT) in plasma of chronically dosed hamsters; format: in vivo, hamster; details: vs vehicle
Method: In order to investigate this, we examined the common liver functional enzymes AST and ALT in the plasma of hamsters from experiment described above in Example 3. These animals were dosed for 18 consecutive days, while being on a HF/HS diet for a total of nearly 5 weeks. We also examined the glucose levels in the plasma of these animals. For pharmacokinetic studies, we utilized wild type mice for both single and repeated administration study. Finally, pharmacokinetic studies were corroborated by data from single and repeated administration to monkeys.
This led to an investigation of liver function tests (AST, ALT) from plasma of hamsters dosed for 18 days with ARI-001. AST and ALT were measured using commercially available kits (Bio-Quant Diagnostic Kits, San Diego, Calif.). As expected, AST and ALT values from untreated hamsters (vehicle group) were very high, as the high fat diet leads to hepatomegaly and fatty liver. This disease state is reflected in the elevated AST and ALT levels.

[1] = Single oral dose pharmacokinetic comparison niacin, ARI-001, 2230C in wild type mice; format: in vivo, C57BL/6 mice; details: single bolus oral gavage, mouse plasma
Text: Compound 2230C has the structure

healthy adult volunteers = assay: Human clinical trial, single escalating oral doses: flushing; format: in vivo; details: single oral doses 500 to 6000 mg; preliminary
Method: A randomized, double-blind, placebo-controlled study is performed with sequential escalating doses by cohort with observations for 30 hours post dosing and return visit on 8th day. Study subjects are healthy male and female adult volunteers, age 18-60 years, with LDL-C>130 mg/dL and weight <85 kg. Subjects are randomly assigned to receive study drug or placebo.
Five periods of single dose escalation, with 8 subjects per cohort (6 drug: 2 placebo) involve a total 40 subjects. Appropriately blinded matching placebos are provided. Cohort 1 receives 500 mg of ARI-001 formulated as a single oral tablet, plus eleven placebo tablets; Cohort 2, 1000 mg taken as two 500 mg tablets of ARI-001, plus ten placebo tablets; Cohort 3, 2000 mg taken as four 500 mg tablets of ARI-001, plus eight placebo tablets; Cohort 4, 4000 mg taken as eight 500 mg tablets of ARI-001, plus four placebo tablets; Corhort 5, 6000 mg taken as twelve 500 mg tablets of ARI-001. Placebo-only subjects take twelve placebo tablets. Each tablet is a compressed, film-coated tablet suitable for oral administration. […]

[2] = Pharmacokinetics of multiple administrations to fasted monkeys; format: in vivo, Macaque monkeys; details: 288 mg/kg oral gavage once per day, seven days
Method: ARI-001 was administered to monkeys via oral gavage once per day for a total of seven days. Blood samples were collected after the first and after the last administrations to measure plasma concentrations of ARI-001.

[3] = system: plasma lipids in animal models; assay: Summary of lipid efficacy studies in animal models; format: in vivo
Text: A number of pharmacokinetic, safety, and efficacy studies for ARI-001 have been completed in a variety of animals, including mice, rats, Golden Syrian hamsters, dogs, and monkeys. Overall, results from these studies have established the following.

## O=C(O)c1ccc(CCN2CCOCC2)nc1 [ARI-001]
rats
  clinical symptoms of flushing: not observed
dogs
  clinical symptoms of flushing: not observed
High fat-fed hamsters; 2240 mg/kg oral 18 days
  AST: drastically reduced
High fat-fed hamsters; 1120 and 2240 mg/kg oral 18 days, dose-dependent
  ALT: similarly reduced
[1]; C57BL/6
  AUC: 1100 µM·h
  Cmax: 309 µM
  Tmax: 22.8 min
[1]; C57BL/6, read-out: half-life (t1/2) (converted)
  half-life: 85.8 min
[1]
  AUC (% Niacin): 9.4 % Niacin
  Cmax (% Niacin): 7.5 % Niacin
  Cmax/AUC0-24: 0.28 h⁻¹
Healthy adult volunteers
  signs of flushing: no patients exhibited any signs of flushing
[2]
  Cmax day 1 versus day 7: higher on day 7 than on day 1
  concentrations 24 hours after first or last dose: essentially identical
  plasma concentrations day 1 versus day 7: very little difference
[3]; in vivo
  plasma lipid changes, once daily vs same total dose twice daily: greater than or equal to the lipid altering effects observed with the same total dose of ARI-001 given twice daily
[3]; niacin at nearly 2-fold higher dose once a day
  lipid altering effects of once-daily dose vs niacin: more pronounced

Reference: US8937063B2 (Trustees of Tufts College, priority 2010, dated 2015)
